Measured values taken from patent US20190350955A1, “METHODS AND PHARMACEUTICAL COMPOSITIONS FOR THE TREATMENT OF CARDIOMYOPATHIES” (INSERM (Institut National de la Sante et de la Recherche …, priority 2016, published 2019).

Columns and labels:
Format in all cases: in vivo, mouse
TAC mice [1] = assay: Echocardiography after transverse aorta constriction (TAC); conditions: NR enriched diet 400 mg/kg/day vs untreated TAC group
Procedure: Transverse aorta constriction was performed in 2 month-old male mice under anesthesia (ketamine 100 mg/kg, xylazin 16 mg/kg). Skin was opened above the sternum and the upper part of the sternum was cut on a length of 2 mm allowing the mouse to breath without the need of a ventilator. A surgical suture was passed under the aortic cross between the right brachiocephalic (innominate) artery and left common carotid artery and a 27-½ gauge blunt needle was placed parallel to the wall of the aortic cross as a calibrator. Two loose knots were tied around the aortic cross and the needle. […]
(§1) Echocardiography was performed on lightly anesthetized mice given isoflurane (induction with 2% isoflurane 100% O2. and maintained with 0.5% isoflurance 100% O2). Non-invasive measurements of left ventricular dimensions were evaluated using Doppler echocardiography (Vivid 7 Dimension/Vivid7 PRO; GE Medical Systems) with a probe ultrasound frequency range of 9-14 MHz. […] LV fractional shortening (FS) was calculated using the formula: (LVEDD−LVESD)/LVEDD×100. LV myocardial volume (LVV), LV end-diastolic volume (EDV), and end-systolic volume (ESV) were calculated using a half-ellipsoid model of the LV. From these volumes, LV ejection fraction (EF) was calculated using, the formula: (EDV−ESV)/EDV×100. H/R ratio was calculated by the formula (PWThd+IVSThd)/LVEDd.

control mice = assay: Echocardiography of control (Sf/Sf) mice on NR diet; conditions: D45 to D47
Source text: Transgenic mice. All experiments with animals conformed to the Directive 2010/63/EU of the European Parliament and were approved by the ethics committee Charles Darvin #5 (agreement 00369.01). SRF^HKO mice bear the tamoxifen-inducible α-MHC-MerCrMer transgene and the Siffloxed allele (Sf/Sf) as described previously (Parlakian et al. (2005). Temporally controlled onset of dilated cardiomyopathy through disruption of the SRF gene in adult heart. Journal 112, 2930-2939; Tritsch et al. (2013). An SRF/miR-1 axis regulates NCX1 and Annexin A5 protein levels in the normal and failing heart. Journal 98, 372-380). Transgenic mice have been bred for more than 20 generations in C57BL/6N background. […]
as §1, with “H/R ratio was calculated by the formula (PWThd+IVSThd)/LVEDd.” left out

SRF^HKO mice = assay: Echocardiography of SRF HKO mice on NR diet
Source text: Transgenic mice. All experiments with animals conformed to the Directive 2010/63/EU of the European Parliament and were approved by the ethics committee Charles Darvin #5 (agreement 00369.01). SRF^HKO mice bear the tamoxifen-inducible α-MHC-MerCrMer transgene and the Siffloxed allele (Sf/Sf) as described previously (Parlakian et al. (2005). Temporally controlled onset of dilated cardiomyopathy through disruption of the SRF gene in adult heart. Journal 112, 2930-2939; Tritsch et al. (2013). An SRF/miR-1 axis regulates NCX1 and Annexin A5 protein levels in the normal and failing heart. Journal 98, 372-380). Transgenic mice have been bred for more than 20 generations in C57BL/6N background. The mice were housed in standard animal facility (CEF. Hôpital Pitié Salpétrière, agreement A-75-13-15, 75013 Paris), under a 12-h dark/light cycle. Tamoxifen (Sigma T5648) was administrated by i.p. injection at a dose of 0.7 mg diluted in 100 μl peanut oil at day (D) 0, D1 and D2. (Sf/Sf) littermates injected with tamoxifen at the same time than mutant were used as controls.
SRF^HKO and control (Sf/Sf) mice were administered either rodent maintenance SAFE A04 diet containing 3.10% crude fat. 16.10% crude proteins. 26% starch and 1.9% sugar (Scientific Animal Food Engineering, Paris, France) or SAFE # A04 diet supplemented with NR. NR was provided by Chromadex under brand name NIAGEN (Irvine Calif. USA). The soft pellets were manually prepared every 5 days by mixing 1.65 g of NR into 500 g of powdered SAFE A04 diet and 235 ml of water to reach 2.24 mg of NR/g (wet weight). Control diet was prepared in the same way omitting NR. Mice had ad libitum access to food and water. Mice (average body weight 31.3±0.82 g, no difference between groups) consumed an average of 6 g of soft food per day, reaching a daily intake of 450 mg NR/kg. No difference in food intake was observed between SRF^HKO and control mice.
Echocardiography was performed on lightly anesthetized mice given isoflurane (induction with 2% isoflurane 100% O2. and maintained with 0.5% isoflurance 100% O2). Non-invasive measurements of left ventricular dimensions were evaluated using Doppler echocardiography (Vivid 7 Dimension/Vivid7 PRO; GE Medical Systems) with a probe ultrasound frequency range of 9-14 MHz. The two-dimensionally guided time-motion recording mode (parasternal long-axis view) of the left ventricle (LV) provided the following measurements: diastolic and systolic septal (IVS) and posterior wall thicknesses (LVPW); internal end-diastolic (LVEDD) and end-systolic diameters (LVESD); and heart rate. Each set of measurements was obtained from the same cardiac cycle. At least 3 sets of measurements were obtained from 3 different cardiac cycles. LV fractional shortening (FS) was calculated using the formula: (LVEDD−LVESD)/LVEDD×100. LV myocardial volume (LVV), LV end-diastolic volume (EDV), and end-systolic volume (ESV) were calculated using a half-ellipsoid model of the LV. From these volumes, LV ejection fraction (EF) was calculated using, the formula: (EDV−ESV)/EDV×100. H/R ratio was calculated by the formula (PWThd+IVSThd)/LVEDd.

TAC mice [2] = assay: RT-qPCR of Nmrk2, Nmrk1, Nampt mRNA after TAC; conditions: 6 weeks after surgery, NR 400 mg/kg/day
Procedure: (§2) Transverse aorta constriction was performed in 2 month-old male mice under anesthesia (ketamine 100 mg/kg, xylazin 16 mg/kg). Skin was opened above the sternum and the upper part of the sternum was cut on a length of 2 mm allowing the mouse to breath without the need of a ventilator. A surgical suture was passed under the aortic cross between the right brachiocephalic (innominate) artery and left common carotid artery and a 27-½ gauge blunt needle was placed parallel to the wall of the aortic cross as a calibrator. Two loose knots were tied around the aortic cross and the needle. The first knot was quickly tied against the needle, followed by the second and the needle was promptly removed in order to produce a constriction of 0.4 mm in diameter. In sham, mice the procedure was the same except for the constriction of the aorta. NR treatment was started 2 days after the TAC or SHAM surgery.
cDNAs were reverse transcribed from RNA (1.5 μg) extracted in TRIzol (Thermofisher) from cell cultures and tissues using the Superscript II Reverse Transcriptase (Life Technologies). Quantitative PCR was carried out on a Light Cycler 480 (Roche Diagnostics) using Fast Start SYBR Green Master (Roche Diagnostics). Quantification of gene expression was calculated as R=2^ΔCt(Ref Cp−target Cp), with Hprt used as a as reference. Primers were designed using the NCBI Primer-BLAST software. […]

TAC mice [3] = assay: Myocardial NAD+ levels after TAC; conditions: 6 weeks after TAC, NR treated TAC group vs non treated CD TAC group
Procedure: as §2
Tissue frozen powder was resuspended in 75% ethanol, 25% HEPES 10 mM pH 7.1, buffer (20 μl/mg of tissue). Extracts were warmed 5 min at 80° C., then directly cold on ice and centrifuge 5 min at 16 000 g. Tissues extracts were normalized on the weight of tissue used for extraction. […] After adjustment of dilution factors, NADH levels were calculated by substracting the NAD^+ concentration to the non-heated ethanolic extract values: NADH=NADt (non heated)−NAD^+ (heated). […]

[4] = NR diet, echocardiography D45 to D47

Compound: NC(=O)c1ccc[n+]([C@@H]2O[C@H](CO)[C@@H](O)[C@H]2O)c1 [NR, nicotinamide riboside]
- drop in LVEF triggered by TAC (TAC mice [1]): limits
- thickening of the interventricular septum (IVSTh) triggered by TAC (TAC mice [1]): limits
- H/R ratio (control mice): slightly increased
- LV ejection fraction (LVEF) (SRF^HKO mice; NR diet 0.22% from D5, echocardiography D45 to D47, ± S.D, non-treated SRF HKO 48.1, control mice 73.5): 64.8%±8.2
- LV contractile functions (LVEF and FS) (SRF^HKO mice; NR diet, D45 to D47): clearly protected
- changes in stroke volume or cardiac output (SRF^HKO mice; NR diet, D45 to D47): not significant
- dilatation of LV in systole and diastole (SRF^HKO mice; NR diet, D45 to D47): fully protected
- reduction of the H/R ratio (eccentric remodeling) (SRF^HKO mice; NR diet, D45 to D47): fully prevented
- thinning of the LV wall in systole and diastole (SRF^HKO mice; NR diet, D45 to D47, more efficiently at posterior wall than interventricular septum): reduced the thinning
- LV mass index (SRF^HKO mice; [4]): did not induce any change
- heart rate (SRF^HKO mice; [4]): did not induce any change
- Nmrk2, Nmrk1 and Nampt mRNA levels (TAC mice [2]): no impact
- myocardial NAD+ levels (TAC mice [3]): significantly higher
